Measurements from patent US20030216471A1, “Retinoid formulations for aerosolization and inhalation” (priority 2003, published 2003).
Entries after “also recorded” stand apart in the source; their conditions may differ.

Assays:
[1] = system: RARβ; assay: Western blot of SENCAR mouse liver, dietary RA 75 weeks, RAR β; format: in vivo; settings: for RARβ densitometry of Western blots: liver
Experimental: (§1) Tissues were collected, frozen in dry ice and kept at −70° C. until used. 500 mg aliquots were diced in small pieces and homogenized in 300 μl of cold PBS, using the hand held homogenizer for 2˜3 minutes. Sample and washes were centrifuged at 5000×g for 20 minutes. The pellet was suspended in 400 μl of ice-cold Buffer A [2 μl 0.5M EDTA, 10 μl 100 mM EGTA, 50 μl 100MM PMSF, 10 μl 1M DTT, 10 ml (10 mM HEPES pH 7.9+10 mM KCl)], and left at ice temperature for 15 minutes. 25 μl of 10% solution of NP-40 was added and samples were mixed in a vortex vigorously for 10 seconds. Samples were centrifuged at 14,000×g for 1 minute at 4° C. and the pellet treated once more in this fashion (resuspended etc.). The supernatant was removed and 100 μl of ice-cold Buffer C [4 μl 0.5M EDTA, 20 μl 100 mM EGTA, 20 μl 100 mM PMSF, 2 μl 1M DTT, 2 ml (20 mM HEPES pH 7.9+0.4M NaCl)] was added. Pellets were resuspended by tapping gently on the bottom of the Eppendorf tubes. Samples were rocked vigorously in a bucket of ice on an orbital shaker for 30 minutes. Samples were centrifuged at 14,000×g for 5 minutes at 4° C.
(§2) Samples were prepared by adding one part of the Sample Buffer to one part of the sample and mixing well. Samples were heated at 95° C. for 5 minutes to induce denaturation. 5 μl of Rainbow Standard and 5 μl of Biotinylated Molecular Marker were added to parallel wells. 20 μg protein per sample was loaded in each lane. Electrophoresis was performed with voltage set at 125V for about 1˜1.5 hours. Gel transfer was executed at 25V for 2 hours. The membrane was stained in Ponceau S. for 5 minutes and destained with one wash of 5% acetic acid. The membrane was then washed in TBS solution until the staining disappeared. Membranes were incubated in 1 ml blocking solution and 9 ml TBS for 60 minutes. Membranes were incubated in 1 ml of blocking solution and 19 ml TBS along with 20 μl primary antibody solution overnight (dilution of 1:1000). Membranes were washed in PBS-Tween 20, 3 times for 10 minutes each. […]

[2] = system: RARα; assay: Western blot of SENCAR mouse liver, dietary RA 75 weeks, RAR α; format: in vivo; settings: for RARα densitometry of Western blots: liver
Experimental: as §1, §2

[3] = system: RARγ; assay: Western blot of SENCAR mouse liver, dietary RA 75 weeks, RAR γ; format: in vivo; settings: for RARγ densitometry of Western blots: liver
Experimental: as §1, §2

[4] = system: RAR α; assay: Time course of dietary RA effect on SENCAR mouse liver RAR α; format: in vivo; settings: pharmacological dietary RA over physiological RA, day 1
Experimental: (§3) SENCAR mice (30) were divided into six experimental groups.
as §1
(§4) Samples were prepared by adding one part of the Sample Buffer to one part of the sample and mixing well. Samples were heated at 95° C. for 5 minutes to induce denaturation. […]

[5] = system: RAR γ; assay: Time course of dietary RA effect on SENCAR mouse liver RAR γ; format: in vivo; settings: pharmacological dietary RA over physiological RA, day 1
Experimental: as §3, §1, §4

[6] = system: lung tissue RARs; assay: SENCAR mouse lung tissue RARs, dietary RA; format: in vivo
Experimental: as §3, §1, §4

[7] = system: RARα; assay: Immunohistochemical analysis of SENCAR mouse liver, dietary RA; format: in vivo; settings: pharmacological RA diet compared to physiological RA, 75 weeks
Experimental: Liver tissue (approximately 300 mg) was fixed in 10% formalin, embedded in paraffin and 5 μm sections were used for immunohistochemistry. Staining for RAR was similar to our previously described protocol {8656}. ABC kit Mouse/Rabbit IgG and DAB Substrate kit were used (Vector Laboratories Inc., 30 Ingold Road Burlingame, Calif.).

[8] = system: TGase II; assay: TGase II activity in cultured human breast cancer MCF-7 cells; format: cell-based
Experimental: Cells were harvested and Transglutaminase II activity was measured as described below. Nebulizer solution, inhalation procedures, details of animal housing are described below.
Cultured cells were placed in 100 μl scraping buffer [A: 2800 μl (400 μl 0.5M Na-Phosphate, 500 μl 0.01M EDTA, 100 μl 1M DTT, 9 ml PBS total 10 ml)+B:700 μl (10 μl 20 mg/ml PMSF 790 μl PBS total 800 μl)] for each dish. Cells were broken by a sonicator and kept in ice until used. TGase II assay was conducted as described below and previously {8217}.
Enzyme assay mixtures were prepared by adding 80 μl of SUBSTRATE mixture (322.8 μl H2O, 120 μl 0.5M NaBorate, 60 μl 0.01M EDTA, 60 μl 0.1M CaCl2, 6 μl 1M DTT, 240 μl dimethyl casein, 30 μl Triton X-100, 1.21 μl [^3H]-Putrescine, 120 μl Putrescine) to 20 μl sample, 20 μl scraping buffer for blank control, 20 μl (18 μl scraping buffer+2 μl TGase II) for positive control. Samples were mixed in 15 ml tubes, the tubes were shaken before putting them into a 28° C. water bath for 30 minutes. Reactions were slowed down in an ice bath. 80 μl of the incubation mixture was adsorbed onto paper disks. These were immediately dropped into cold 10% TCA (0.1% Putrescine) and washed with agitation for 7 minutes, followed by 2 additional washes with 5% TCA (0.05% putrescine) for 5-7 minutes, and once more with cold (−20° C.) 95% ethanol for 5 minutes. Paper disks were dried and placed into 5 ml Aquasol, and counted in a Liquid Scintillation Counter. Protein concentration determination was conducted by the Bradford method.

[9] = system: RAR β; assay: Time course of dietary RA effect on SENCAR mouse liver RAR β; format: in vivo; settings: pharmacological dietary RA over physiological RA, day 1
Experimental: as §3, §1, §4

[10] = dietary RA 30 μg/g vs 3 μg/g diet, male SENCAR mice

## CC1=C(/C=C/C(C)=C/C=C/C(C)=C/C(=O)O)C(C)(C)CCC1 [RA, all-trans-retinoic acid]
[1]; [10]
  upregulation of liver RAR (second named, β): 13.5 fold
[1]; RA diet 3 μg/g
  RARβ densitometry of Western blots: 18.9+/−7.4 IDV
[1]; RA diet 30 μg/g
  RARβ densitometry of Western blots: 254+/−31.9 IDV
[2]; [10]
  upregulation of liver RAR (first named, α): 21.8 fold
[2]; RA diet 3 μg/g
  RARα densitometry of Western blots: 12.1+/−7.2 IDV
[2]; RA diet 30 μg/g
  RARα densitometry of Western blots: 264+/−21.3 IDV
[3]; [10]
  upregulation of liver RAR (third named, γ): 12.5 fold
[3]; RA diet 3 μg/g
  RARγ densitometry of Western blots: 23.1+/−6.7 IDV
[3]; RA diet 30 μg/g
  RARγ densitometry of Western blots: 288+/−17.4 IDV
[4]
  stimulation of liver RAR (first named, α): 2 fold
[5]
  stimulation of liver RAR (third named, γ): 2.1 fold
[6]; long term feeding of 30 μg/g diet, SENCAR mouse
  effect of dietary RA on lung tissue RARs: failed to induce
[6]; time course, 1 to 28 days, 30 μg/g diet, not shown
  effect of dietary RA on lung tissue RARs: without any measurable effect; also recorded: no effect
[7]
  RARα immunohistochemical staining in liver nuclei: striking increase of RAR expression; also recorded: marked increase in staining
[8]; MCF-7 cells treated at 10^−6 M for 72 hours, DMSO control 0.183
  TGase II Activity: 1.359+/−0.098 picomoles/μg protein/30 minutes
[8]; MCF-7 cells, 10^−6 M, 72 hours, over DMSO
  stimulating TGase II activity: 7.4 Fold
[9]
  stimulation of liver RAR (second named, β): 4 fold
